Laboratory results published in patent US10842806B2, “Methods for treating ocular inflammatory disorders” (Massachusetts Eye and Ear Infirmary, priority 2011, dated 2020).

System: WT BMDCs
Experiment: BMDC maturation with AICAR plus adenosine kinase inhibitor or nucleoside transporter inhibitor
Type: cell-based, mice
Settings: CD40, CD80, CD86, I-A^b by FACS
Description: FIG. 15 depicts the combined effect of AICAR and a nucleoside transporter or an adenosine kinase inhibitor on BMDC maturation. WT BMDCs were stimulated with LPS and 1 mM AICAR in the presence or absence of 0.1 mM IODO or 1 μM DPY. The number of CD11c-gated CD40, CD80, CD86 and I-A^b positive cells was measured by FACS. Bars represent mean±SD from three independent experiments. BMDCs were generated as previously described (Wang et al. (2005) IMMUNOL. LETT. 98:123-130). Briefly, bone marrow was flushed from the femurs and tibias of naive mice (6 to 8-week-old WT or AMPKα1 KO mice). The red blood cells were lysed using Red Blood Cell Lysing Buffer (Sigma). Approximately 2×10^6 cells were cultured in complete medium (RPMI 1640 medium containing 10% FBS, […], 10 mM HEPES [pH 7.4], 2 mM glutamine, 100 U/ml penicillin, and […]) including 10 ng/ml GM-CSF (Pepro Tech, London, England). Fresh media was added to the cells on day 4 of culture, and nonadherent cells and loosely adherent cells were collected as immature DCs on day 7. Immature DCs were stimulated with 100 ng/ml LPS (Salmonella typhimurium; Sigma) for 24 hours to obtain mature DCs. In some experiments, AICAR was added to the culture. […] To further study AICAR's suppressive effect, an adenosine kinase inhibitor (IODO) was used to inhibit AICAR conversion to ZMP. […]

## OCCN(CCO)c1nc(N2CCCCC2)c2nc(N(CCO)CCO)nc(N3CCCCC3)c2n1 [DPY]
1 μM DPY with LPS and 1 mM AICAR
  Effect on AICAR-mediated suppression of co-stimulatory molecule expression: reversed

## Nc1ncnc2c1c(I)cn2[C@@H]1O[C@H](CO)[C@@H](O)[C@H]1O [IODO]
0.1 mM IODO with LPS and 1 mM AICAR
  Effect on downregulation of co-stimulatory molecule expression by AICAR: did not affect
